Like-named read-outs stand apart in the source and are kept apart here.
How the values were obtained:
Aβ(1-42) [1] = settings: cited from earlier work
Aβ(1–42) fibrils = molecular target: T1, Aβ(1–42) fibrils (Homo sapiens, UniProt P05067); test: Thioflavin T (ThT) fluorescence competition assay; type: binding; settings: ThT (1.0 μM), 1× PBS pH 7.4, 25 °C; for ThT displacement in competition screen: Aβ(1–42) fibrils (250 nM); for Kd: Aβ(1–42) fibrils (500 nM)
T1 construct: Monomeric Aβ(1-42) (1 mg: Rockland Immunochemicals, Limerick, PA, Lot #31541); purchased Rockland Immunochemicals, Limerick, PA Lot #31541 (a lot number; no catalogue number given)
T1 sequence (P05067 672-713 limits assumed): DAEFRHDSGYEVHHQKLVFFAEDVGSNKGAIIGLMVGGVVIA

Aβ(1-42) [2] = settings: cited from earlier work; remark: listed apart in the source
[3] = average of fits from at least three independent experiments, read-out: Kd/nM
[4] = against [125I]IMSB, ref 10.1021/jm010045q
[5] = against [3H]BF-227, ref 10.1177/1536012118796297

## CN(C)c1ccc(C=CC(=O)c2ccc(I)cc2)cc1 [[125I]DMIC]
Aβ(1-42) [1]; direct binding, ref 10.1016/j.bmc.2007.07.052
  Kd: 4.2 nM

## COCCOCCn1c2ccccc2c2cc(/C=C/c3cc[n+](C)c4ccccc34)ccc21 [SLM]
Aβ(1-42) [1]; direct binding, ref 10.1021/acsomega.8b00475
  Kd: 11400 nM

## Cc1ccc(C)c2c(C)c(C(=O)N3CCCc4c(OCC(N)=O)cccc43)oc12 [E197]
Aβ(1–42) fibrils
  ThT displacement in competition screen: displaced the greatest quantity of ThT
Aβ(1–42) fibrils; [3]
  Kd: 600 ± 300 nM
Aβ(1–42) fibrils; read-out: –log(Kd/M) (converted)
  Kd: 501 nM

## COc1cc(/C=C/C(=O)CC(=O)/C=C/c2ccc(O)c(OC)c2)ccc1O [Curcumin]
Aβ(1-42) [2]; against [125I]IMSB, ref 10.1016/j.bmcl.2011.08.003
  Ki: 3.57 nM

## Nc1ccc(-c2ccc3ccccc3n2)cc1 [BF-170]
Aβ(1-42) [2]; against [125I]BF-180, ref 10.1523/JNEUROSCI.1738-05.2005
  Ki: > 5000 nM

## Cc1ccc2c(c1)sc(-c1ccc(N(C)C)cc1)[n+]2C [ThT, Thioflavin T]
Aβ(1-42) [1]; direct binding, ref 10.1002/chem.201800501
  Kd: 665 nM
Aβ(1-42) [1]; direct binding, ref 10.1016/j.bmc.2011.09.065
  Kd: 2560 nM
Aβ(1-42) [1]; direct binding, ref 10.1021/acs.analchem.2c02532
  Kd: 117 nM
Aβ(1-42) [1]; direct binding, ref 10.1021/acs.jmedchem.5b00571
  Kd: 32 nM
Aβ(1-42) [1]; direct binding, ref 10.1021/acschemneuro.6b00380
  Kd: 1940 nM
Aβ(1-42) [1]; direct binding, ref 10.1021/acschemneuro.6b00450
  Kd: 430 nM
Aβ(1-42) [2]; [4]
  Ki: > 4000 nM

## COc1cc(F)c(C(C)NC(=O)NCCN2c3ccccc3CC2C)cc1OC (stereo not shown) [E704]
Aβ(1–42) fibrils
  ThT displacement in competition screen: displaced the greatest quantity of ThT
Aβ(1–42) fibrils; [3]
  Kd: 56 ± 6 nM

## O=[N+]([O-])c1ccc2c(c1)Sc1cc(OC/C=C/I)ccc1N2 [[125I]SIL23]
Aβ(1-42) [1]; direct binding, ref 10.1371/journal.pone.0055031
  Kd: 635 nM

## COCCOCCOCCOC(=O)/C(C#N)=C/c1ccc2cc(N3CCCCC3)ccc2c1 [ANCA-11]
Aβ(1-42) [1]; direct binding, ref 10.1021/cn200018v
  Kd: 1400 nM

## CNc1ccc(/C=C/c2nc3ccc(OCCF)cc3o2)cc1 [BF-168]
Aβ(1-42) [2]; against [125I]BF-180, ref 10.1523/JNEUROSCI.4456-03.2004
  Ki: 6.4 nM

## COc1ccc(C=Cc2ccc(C=Cc3ccc(OC)c(C(=O)O)c3)c(I)c2)cc1C(=O)O [IMSB]
Aβ(1-42) [1]; direct binding, ref 10.1021/ja0167147
  Kd: 0.73 nM
Aβ(1-42) [2]; [4]
  Ki: 0.8 nM

## CNc1ccc(-c2cc3cc(O)ccc3o2)c(F)n1 [Flutafuranol]
Aβ(1-42) [2]; [5]
  Ki: 42 nM

## CN(C)c1ccc(-c2cc(-c3ccnc(Br)c3)[nH]n2)cc1 [[11C]MODAG-001]
Aβ(1-42) [1]; direct binding, ref 10.1007/s00259-020-05133-x
  Kd: 20 nM

## CN(C)c1ccc(-c2ccc3cc(-c4nc5ccccc5s4)c(=N)oc3c2)cc1 [ICTAD-1]
Aβ(1-42) [1]; direct binding, ref 10.1039/d0sc02060e
  Kd: 3780 nM

## CC1(C)C(/C=C/C2=C(c3ccc(CCC(=O)O)cc3)C(=C/C=C3/N(CCC[N+](C)(C)C)c4ccc(S(=O)(=O)O)cc4C3(C)C)/CCC2)=[N+](CCC[N+](C)(C)C)c2ccc(S(=O)(=O)O)cc21 [ZW800-1C]
Aβ(1-42) [1]; direct binding, ref 10.1038/s41551-023-01003-7
  Kd: 78.9 nM

## CN(C)c1ncc(/C=C/c2nc3ccc(OCCF)cc3o2)s1 [BF-227]
Aβ(1-42) [1]; direct binding, ref 10.1177/1536012118796297
  Kd: 15.7 nM
Aβ(1-42) [1]; two-site model, Site 1, ref 10.1007/s00259-012-2261-2
  Kd: 1.72 nM
Aβ(1-42) [1]; two-site model, Site 1, ref 10.1016/j.ejphar.2009.06.042
  Kd: 1.31 nM
Aβ(1-42) [1]; two-site model, Site 1, ref 10.1021/acs.molpharmaceut.8b00229
  Kd: 0.82 nM
Aβ(1-42) [1]; two-site model, Site 2, ref 10.1007/s00259-012-2261-2
  Kd: 56.1 nM
Aβ(1-42) [1]; two-site model, Site 2, ref 10.1016/j.ejphar.2009.06.042
  Kd: 80 nM
Aβ(1-42) [1]; two-site model, Site 2, ref 10.1021/acs.molpharmaceut.8b00229
  Kd: 125 nM
Aβ(1-42) [2]; [5]
  Ki: 12 nM
Aβ(1-42) [2]; against [125I]BF-180, ref 10.2967/jnumed.106.037556
  Ki: 4.3 nM

## CN(C)c1ccc(-c2ccc3cc(OCC(O)CF)ccc3n2)cc1 (stereo not shown) [THK-5105]
Aβ(1-42) [1]; direct binding, ref 10.2967/jnumed.112.117341
  Kd: 35.9 nM

## CC(=C(C#N)C#N)c1ccc2cc(N(C)CCF)ccc2c1 [FDDNP]
Aβ(1-42) [1]; direct binding, ref 10.1007/s00259-012-2261-2
  Kd: 5.52 nM

## Oc1c(I)cc(Cl)c2cccnc12 [CQ]
Aβ(1-42) [1]; direct binding, ref 10.1016/j.bios.2017.06.030
  Kd: 86 nM

## Nc1ccc(/C=C/c2nc3cc(F)ccc3o2)cc1 [BF-140]
Aβ(1-42) [2]; against [125I]BF-180, ref 10.1385/JMN:24:2:247
  Ki: 2.1 nM

## CN(C)c1ccc(/N=N/c2nc3ccc(OCCOCCOCCF)cc3s2)cc1 [[18F]FPPDB]
Aβ(1-42) [1]; direct binding, ref 10.1021/ml200230e
  Kd: 45.4 nM

## CN(C)c1ccc(/C=C/c2nc3ccc(I)cc3[nH]2)cc1 [SBIM-3]
Aβ(1-42) [1]; direct binding, ref 10.1016/j.bmc.2013.02.054
  Kd: 820 nM

Reference: PMC10375536, “Discovery of High-Affinity Amyloid Ligands Using a Ligand-Based Virtual Screening Pipeline” (Journal of the American Chemical Society, 2023)
